Common to all, as to assay: growth of human tumour cells (NCI), 48 h
Test [1] concerns BT-549 breast.
For test [2], the system named is CCRF-CEM leukemia.
Test [3] has as its system HCT-15 colon.
Test [4] concerns HT29 colon.
Test [5] concerns MCF7 breast.
In test [6] the test system is MDA-MB-435.
Test [7] concerns PC-3 prostate.
In test [8] the test system is SF-539 CNS.
Test [9] has as its system SK-MEL-28 melanoma.
The test system of test [10] is T-47D breast.

These results are taken from PubChem BioAssay (NCI).

Structures are written as SMILES. Values joined by “and” are separate entries in the source; they are usually repeats but may differ in a detail not shown here. Identical values can stand only once.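 Five compound concentrations were applied to cells in 96-well plates for 48 hours; endpoints were derived by simple linear interpolation of the resulting dose-response curve. GI50 = concentration required for 50% inhibition of growth. Definition used: TGI = concentration required for complete inhibition of growth.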 Where only a bound is given, the exact number is not on record here.

Take `COc1cc(/C=C2\CCCC3C2=Nc2ccccc2NC3c2cc(OC)c(OC)c(OC)c2)cc(OC)c1OC` (configuration not stated): the GI50 in test [1] was 1.58 µM; in test [2], 0.591 µM; in test [3] it was 1.77 µM; in test [4] it was 1.21 µM; in [5], 2.48 µM; in [6] it was 0.425 µM. Also, the GI50 was 2.69 µM in test [7], 3.9 µM in test [8], 2.02 µM in test [9] and 3.75 µM in test [10]. Also, the TGI is 5.5 µM in test [1]; 3.6 µM in test [2]; 4.08 µM in test [3]; greater than 100 µM in test [5]; 4.4 µM in [6]; greater than 100 µM in [7]. In addition, the TGI was greater than 100 µM in test [8], 5.24 µM in test [9] and 52.7 µM in [10].

`O=C(Nc1ccc(Cl)cc1F)c1cc(F)ccc1O`: the GI50 in test [1] was 0.83 µM; in [2], 3.16 µM; in [3], 1.46 µM; in test [4], 3.24 µM; in test [5] it was 1.77 µM; in test [6] it was 0.626 µM. Further, the GI50 was 1.49 µM in [7], 0.845 µM in [8], 0.485 µM in [9] and 0.904 µM in [10]. Further, the TGI in [1] was 4.02 µM; in test [2], greater than 100 µM; in test [3], 9.62 µM; in [4] it was greater than 34 µM; in test [5] it was 9.28 µM; in test [6], 5.51 µM. Besides, the TGI in test [7] was 6.73 µM; in test [8], 7.58 µM; in test [9], 2.63 µM; in test [10], greater than 23.5 µM.

With `Cc1c2cnccc2c(C)c2c1c1cc(C(=O)O)ccc1n2C`, the GI50 in [1] is 1.47 µM; in [2], 1.06 µM; in test [3], 0.804 µM; in [4] it was 0.856 µM; in test [5] it was 1.02 µM; in test [6], 1.33 µM. The GI50 in [7] is 1.68 µM; in test [8], 1.01 µM; in test [9], 1.36 µM; in [10] it was 1.51 µM. The TGI in test [1] was found to be 4.82 µM; in test [2] it was 6.6 µM; in test [3] it was 7.82 µM; in test [4], 6.15 µM; in [5] it was 13.6 µM; in [6] it was 3.4 µM. The TGI in test [7] is 8.09 µM; in test [8], 3.27 µM; in test [9], 3.71 µM; in test [10], greater than 26.5 µM.

For the compound `C=CC(=O)NCCOc1cccc(Nc2cc(NCCCNC(=O)C3CCC3)c(Br)cn2)c1`, the GI50 in test [1] was 0.603 µM; in test [2], 1.04 µM; in test [3], 1.38 µM; in test [4], 0.548 µM; in test [5], 0.781 µM; in test [6], 2.49 µM. Moreover, the GI50 was 1.3 µM in test [7], 0.568 µM in test [8], 1.64 µM in test [9] and 4.49 µM in test [10]. In addition, the TGI in test [1] was 1.93 µM; in test [2], greater than 25 µM; in test [3], 23.3 µM; in test [4], 2.84 µM; in test [5] it was 10.3 µM; in test [6], 6.03 µM. For the same compound, the TGI in test [7] turned out to be 11 µM; in test [8], 2.21 µM; in test [9] it was 8.78 µM; in test [10], 22.7 µM.

Consider `NC(=O)c1ccc2nc(-c3ccc(C4(N)CCC4)cc3)c(-c3ccccc3)n2n1`, for which the GI50 in [1] was 1.28 µM; in [2], 1.41 µM; in [3], 11.5 µM; in [4], 1.5 µM; in [5], 0.158 µM; in test [6], 11.8 µM. Besides, the GI50 was 0.183 µM in test [7], 2.13 µM in [8], 10.9 µM in test [9] and 0.0186 µM in [10]. The TGI turned out to be 14.5 µM in test [1]; 44.4 µM in test [2]; 33.1 µM in test [3]; 25.7 µM in test [4]; 17.5 µM in test [5]; 24.4 µM in [6]. Further, the TGI in test [7] turned out to be 20.1 µM; in test [8] it was 13.7 µM; in [9] it was 23.7 µM; in [10], 15.8 µM.

Regarding `O=C(C[C@@]1(O)C(=O)Nc2c(Cl)ccc(Cl)c21)c1ccc(C2CC2)cc1`, the GI50 in test [1] was 0.445 µM; in test [2], 0.341 µM; in [3] it was 0.102 µM; in test [4] it was 0.222 µM; in test [5], 0.171 µM; in test [6], 0.033 µM. The GI50 in test [7] is 0.434 µM; in test [8], 0.286 µM; in test [9], 3.5 µM; in test [10], 0.454 µM. For the same compound, the TGI was 11.7 µM in test [1]; greater than 100 µM in [2]; 13.6 µM in test [3]; 13.7 µM in test [4]; 18.2 µM in test [5]; 0.232 µM in test [6]. In addition, the TGI in [7] is 20 µM; in [8] it was 3.64 µM; in [9], 23.5 µM; in test [10], 32.5 µM.

As for `S=c1nc[nH]c2nc[nH]c12`, the TGI was greater than 750 µM in test [1]; > 100 µM and 310 µM in [2]; > 100 µM and 629 µM and > 750 µM in test [3]; greater than 750 µM in [4]; > 100 µM and 512 µM and > 413 µM in test [5]; greater than 750 µM in [6]. Besides, the TGI in test [7] was greater than 750 µM; in test [8] it was > 100 µM and 587 µM and 255 µM; in test [9], greater than 750 µM; in [10], greater than 627 µM. In addition, the GI50 is 0.972 µM in test [2]; 3.4 µM and 18.2 µM in test [3]; 22.5 µM in test [4]; 0.61 µM in [6]; 7.96 µM and 18.7 µM in test [7]; 3.02 µM in [8]. Moreover, the GI50 in [9] was 79.2 µM; in test [10], 0.812 µM and 5.81 µM.

In the case of `C/C(=C1/N=C(c2ccccc2)OC1=O)c1ccc(C)cc1`, the TGI in [1], in test [2], in [3], in test [4], in test [5] and in test [6] was greater than 100 µM in each case. In addition, the TGI in test [7], in test [8], in test [9] and in test [10] was greater than 100 µM in each case.

For `CN(C)c1ccc(/C=C/c2ccnc3ccc4ccccc4c23)cc1`, the TGI in [1], in test [2], in test [3], in test [4], in test [5] and in test [6] was greater than 100 µM in each case. The TGI in test [7], in test [8], in test [9] and in test [10] was greater than 100 µM throughout.

Regarding `Cc1cc(Nc2cc(CN3CCOCC3)c3nc(C)c(Cc4ccc(Cl)cc4F)n3n2)n[nH]1`, the GI50 in [1] is 1.73 µM; in test [2], 0.59 µM; in test [3], 2.62 µM; in [4], 1.44 µM; in [5], 0.644 µM; in test [6], 0.694 µM. The GI50 was 2.07 µM in [7], 1.36 µM in [8], 3.5 µM in [9] and 1.23 µM in test [10]. Besides, the TGI came out at 8.92 µM in test [1]; 3.94 µM in test [2]; 14.9 µM in test [3]; 12.3 µM in [4]; 12.9 µM in test [5]; 19.6 µM in [6]. Also, the TGI in test [7] amounted to 18.3 µM; in test [8] it was 3.26 µM; in [9], 17.2 µM; in [10] it was 16.2 µM.

For `COc1cc(-c2cc(-c3nc4cc(Cl)c(Cl)cc4[nH]3)[nH]n2)cc(OC)c1OC`, the GI50 is 2.84 µM in [1]; 2.35 µM in test [2]; 2.89 µM in test [3]; 3.42 µM in [4]; 2.79 µM in test [5]; 3.78 µM in test [6]. The GI50 in [7] is 2.2 µM; in [8] it was 3.28 µM; in [9], 3.07 µM; in test [10], 1.87 µM. Besides, the TGI was 8.02 µM in test [1]; 6.75 µM in test [2]; 11.8 µM in test [3]; 12.5 µM in [4]; 11.5 µM in test [5]; 14.6 µM in [6]. The TGI is 7.89 µM in test [7], 13.4 µM in [8], 12.3 µM in [9] and 5 µM in test [10].

Regarding `Cc1ccc(Nc2[nH]c(C(=O)c3ccc(Cl)cc3)c(N)c2C(=S)Nc2ccccc2)nc1`, the GI50 in [1] is 30.7 µM; in test [2], 38.1 µM; in test [3], 31 µM; in [4], 57.8 µM; in test [5] it was 33.1 µM; in [6] it was 23 µM. Also, the GI50 in test [7] was 26.5 µM; in test [8] it was 19.9 µM; in test [9], 55.2 µM; in test [10], 29.8 µM. For the same compound, the TGI was greater than 100 µM in [1]; greater than 100 µM in test [2]; greater than 100 µM in test [3]; greater than 100 µM in [4]; greater than 100 µM in [5]; 96.3 µM in test [6]. Also, the TGI was greater than 100 µM in test [7], 44.8 µM in [8], greater than 100 µM in [9] and greater than 100 µM in test [10].
